What was measured:
[1] = system: panel of 20 taste testers; assay: Sensory testing for salt enhancement (taste panel, sodium chloride solution); type: in vivo; set-up: key to Difference (salt enhancement effect relative to the same salt solution without the enhancer): None: No effect; +: Weak; ++: Moderate; +++: Strong
Description: Compounds 101 and 130 were evaluated for their salt-enhancement effects by a panel of 20 taste testers. The test compounds were added to solutions (0.25 wt %) sodium chloride, and tested for their sale enhancement effect relative to the same salt solution without the enhancer.

[2] = Sensory testing for cooling/burning (tasting of compound in water solution); type: in vivo; details: for taste attributes: 20 mg/L in water solution
Description: At 2 mg/L, Compound 130 was tasteless.
At 39.2 mg/L, the tingling effect was weak. […] At 2 mg/L, Compound 101 was tasteless.

[3] = 10 ppm test compound in 0.25 wt % sodium chloride solution
[4] = 20 ppm test compound in 0.25 wt % sodium chloride solution

C#CC#CCC/C=C/C=C/C(=O)N1CCCCC1 [Compound 130, (E,E)-2,4-undecadien-8,10-diynoic acid piperidide]
Difference (salt enhancement effect relative to the same salt solution without the enhancer) [1, 3]: ++
Remarks (salt enhancement effect) [1, 3]: Moderate
Difference (salt enhancement effect relative to the same salt solution without the enhancer) [1, 4]: ++
Remarks (salt enhancement effect) [1, 4]: Moderate
taste description ([2]; 2 mg/L in water solution): tasteless
taste attributes [2]: astringent, bitter, salty, earthy, herbal, and cooling, but no warm and hot sensation was perceived
taste description ([2]; 42 mg/L in water solution): long-lasting warm, hot, weak cooling after taste, as well as bitter and astringent

C#CC#CCCCCC(=O)N1CCCCC1 [Compound 101, nona-6,8-diynoic acid piperidide]
Difference (salt enhancement effect relative to the same salt solution without the enhancer) [1, 3]: None
Remarks (salt enhancement effect) [1, 3]: No effect
Difference (salt enhancement effect relative to the same salt solution without the enhancer) [1, 4]: +
Remarks (salt enhancement effect) [1, 4]: Weak
taste description ([2]; 2 mg/L in water solution): tasteless
taste attributes [2]: astringent, bitter, herbal, earthy and green
tingling effect ([2]; 39.2 mg/L in water solution): weak
taste description ([2]; 125 mg/L in water solution): tingling (mid intensity), bitter, metallic, astringent and triggered an uncomfortable feeling in the throat when swallowed
